Test results taken from patent US8071581B2, “Triazolopyridazine protein kinase modulators” (SGX Pharmaceuticals, Inc., priority 2006, dated 2011).

How the values were obtained:
GTL16 = GTL16 cell assay (EC50); assay type: cell-based; conditions: Homo sapiens, GTL 16; Table 1
Experimental: Compounds were tested in the following assays in duplicate. 96-well XTT assay: Cells were grown in growth media containing various concentrations of compounds (duplicates) on a 96-well flat bottom plate for 72 hours at 37° C. in 5% CO2. The starting cell number was 5000 cells per well and volume was 120 μl. At the end of the 72-hour incubation, 40 μl of XTT labeling mixture (50:1 solution of sodium 3′-[1-(phenylaminocarbonyl)-3,4-tetrazolium]-bis(4-methoxy-6-nitro) benzene sulfonic acid hydrate and Electron-coupling reagent: PMS (N-methyl dibenzopyrazine methyl sulfate) were added to each well of the plate. After an additional 2-6 hours […] with a spectrophotometer.

[1] = target: MET kinase (c-MET), kinase domain of human Met (Homo sapiens, UniProt P08581); assay: MET luminescence-based enzyme assay (Kinase-Glo)
MET kinase (c-MET), kinase domain of human Met, sequence (P08581 1078-1345 limits assumed): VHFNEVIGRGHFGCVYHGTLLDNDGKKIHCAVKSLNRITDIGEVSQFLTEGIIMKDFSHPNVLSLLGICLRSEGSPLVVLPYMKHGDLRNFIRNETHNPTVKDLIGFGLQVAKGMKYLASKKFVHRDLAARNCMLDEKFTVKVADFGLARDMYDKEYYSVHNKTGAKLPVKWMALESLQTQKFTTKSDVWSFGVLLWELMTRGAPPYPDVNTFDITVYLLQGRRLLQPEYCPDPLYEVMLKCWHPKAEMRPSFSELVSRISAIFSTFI

SMILES | EC50 (GTL16) [nM] | IC50 [1] [nM]
O=S(=O)(NC1CC1)c1ccc(-c2ccc3nnc(Cc4ccc5ncccc5c4)n3n2)cc1 [compound 1] | 100 to 1000 | < 100
O=S(=O)(c1ccc(-c2ccc3nnc(Cc4ccc5ncccc5c4)n3n2)cc1)N1CCCC1 [compound 2] | 100 to 1000 | 100 to 1000
CCNS(=O)(=O)c1cccc(-c2ccc3nnc(Cc4ccc5ncccc5c4)n3n2)c1 [compound 3] | < 100 | < 100
NC(=O)c1ccc(F)c(-c2ccc3nnc(Cc4ccc5ncccc5c4)n3n2)c1 [compound 4] | 1000 to 10000 | 100 to 1000
CS(=O)(=O)c1ccc(-c2ccc3nnc(Cc4ccc5ncccc5c4)n3n2)cc1 [compound 5] | 100 to 1000 | 100 to 1000
Fc1ccc(Oc2ccc3nnc(Cc4ccc5ncccc5c4)n3n2)cc1 [compound 6] | 100 to 1000 | 100 to 1000
Fc1ccc(Oc2ccc3nnc(Cc4ccc5ncccc5c4)n3n2)cc1F [compound 7, 6-[6-(3,4-Difluoro-phenoxy)-[1,2,4]triazolo[4,3-b]pyridazin-3-ylmethyl]-quinoline] | 100 to 1000 | 100 to 1000
c1ccc(Oc2ccc3nnc(Cc4ccc5ncccc5c4)n3n2)cc1 [compound 8] | 100 to 1000 | 100 to 1000
COc1cccc(Oc2ccc3nnc(Cc4ccc5ncccc5c4)n3n2)c1 [compound 9] | 100 to 1000 | 100 to 1000
NS(=O)(=O)c1ccc(Oc2ccc3nnc(Cc4ccc5ncccc5c4)n3n2)cc1 [compound 10] | 10000 to 50000 | 1000 to 10000
NC(=O)c1ccc(Oc2ccc3nnc(Cc4ccc5ncccc5c4)n3n2)cc1 [compound 11] | 10000 to 50000 | 1000 to 10000
CS(=O)(=O)c1ccc(Oc2ccc3nnc(Cc4ccc5ncccc5c4)n3n2)cc1 [compound 12] | 10000 to 50000 | 1000 to 10000
Oc1ccc(Cc2nnc3ccc(Cl)nn23)cc1 [compound 13] | 10000 to 50000 | 1000 to 10000
Oc1ccc(Cc2nnc3ccc(-c4ccccc4)nn23)cc1 [compound 14] | 1000 to 10000 | 100 to 1000
Clc1ccc2nnc(Cc3ccc4ncccc4c3)n2n1 [compound 15, 6-(6-Chloro-[1,2,4]triazolo[4,3-b]pyridazin-3-ylmethyl)-quinoline] | 1000 to 10000 | 
c1ccc(-c2ccc3nnc(Cc4ccc5ncccc5c4)n3n2)cc1 [compound 16] | 100 to 1000 | 100 to 1000
CC(C)(c1ccc2ncccc2c1)c1nnc2ccc(-c3ccccc3)nn12 [compound 18] |  | 10000 to 50000
CC(c1ccc2ncccc2c1)c1nnc2ccc(-c3cccc(F)c3)nn12 (stereo not drawn) [compound 20] | < 100 | < 100
N#Cc1cccc(-c2ccc3nnc(C(F)c4ccc5ncccc5c4)n3n2)c1 (stereo not drawn) [compound 22] | 1000 to 10000 | 100 to 1000
O=C(c1ccc(-c2ccc3nnc(Cc4ccc5ncccc5c4)n3n2)cc1)N1CCOCC1 [compound 23] | 100 to 1000 | 100 to 1000

SMILES | EC50 (GTL16) [nM] | IC50 [1] [nM]
NC(=O)c1ccc(-c2ccc3nnc(Cc4ccc5ncccc5c4)n3n2)cc1 [compound 24] | < 100 | < 100
NS(=O)(=O)c1cccc(-c2ccc3nnc(Cc4ccc5ncccc5c4)n3n2)c1 [compound 25] | 100 to 1000 | < 100
Cc1ccc2nnc(Cc3c(F)cc4ncc(Br)cc4c3F)n2n1 [compound 28] | 100 to 1000 | 1000 to 10000
CN(C)S(=O)(=O)c1ccc(-c2ccc3nnc(Cc4ccc5ncccc5c4)n3n2)cc1 [compound 29] | 1000 to 10000 | 100 to 1000
Fc1cccc(-c2ccc3nnc(Cc4ccc5ncccc5c4)n3n2)c1 [compound 31] | < 100 | < 100
NCc1ccc(-c2ccc3nnc(Cc4ccc5ncccc5c4)n3n2)cc1 [compound 32] | < 100 | < 100
O=C(NC1CCCC1)c1cccc(-c2ccc3nnc(Cc4ccc5ncccc5c4)n3n2)c1 [compound 33] | 100 to 1000 | 100 to 1000
CN(C)C(=O)c1ccc(-c2ccc3nnc(Cc4ccc5ncccc5c4)n3n2)cc1 [compound 34] | 100 to 1000 | 100 to 1000
Cc1cccc(-c2ccc3nnc(Cc4ccc5ncccc5c4)n3n2)c1 [compound 35] | 100 to 1000 | < 100
Cc1ccc(-c2ccc3nnc(Cc4ccc5ncccc5c4)n3n2)cc1 [compound 36] | < 100 | < 100
CNS(=O)(=O)c1ccc(-c2ccc3nnc(Cc4ccc5ncccc5c4)n3n2)cc1 [compound 37] | < 100 | 100 to 1000
Cc1ccc2cc(Cc3nnc4ccc(-c5ccccc5)nn34)ccc2n1 [compound 38, 2-Methyl-6-(6-phenyl-[1,2,4]triazolo[4,3-b]pyridazin-3-ylmethyl)-quinoline] |  | 1000 to 10000
c1ccc(-c2ccc3nnc(CCc4ccc5ncccc5c4)n3n2)cc1 [compound 39] |  | 10000 to 50000
c1ccc(-c2ccc3nnc([C@H]4C[C@@H]4c4ccc5ncccc5c4)n3n2)cc1 [compound 40] |  | 10000 to 50000
Nc1nc2ccc(Cc3nnc4ccc(-c5ccccc5)nn34)cc2s1 [compound 42] | 1000 to 10000 | 100 to 1000
c1ccc(-c2ccc3nnc(Cc4ccc5ncsc5c4)n3n2)cc1 [compound 43] | 100 to 1000 | 100 to 1000
N#Cc1cccc(-c2ccc3nnc(Cc4ccc5ncccc5c4)n3n2)c1 [compound 59] | < 100 | 
N#Cc1ccc(-c2ccc3nnc(Cc4ccc5ncccc5c4)n3n2)cc1 [compound 60] | 100 to 1000 | 
Fc1ccc(-c2ccc3nnc(Cc4ccc5ncccc5c4)n3n2)cc1F [compound 73] | < 100 | 
Cn1cc(-c2ccc3nnc(Cc4c[nH]c5ncccc45)n3n2)cn1 [compound 108, 6-(1-Methyl-1H-pyrazol-4-yl)-3-(1H-pyrrolo[2,3-b]pyridine-3-ylmethyl)-[1,2,4]triazolo[4,3-b]pyridazine] | < 100 | 

Next, values leading:

EC50 (GTL16) [nM] | IC50 [1] [nM] | SMILES
 | 1000 to 10000 | Clc1nc2ccc(Cc3nnc4ccc(-c5ccccc5)nn34)cc2s1 [compound 44]
100 to 1000 | 100 to 1000 | c1ccc(-c2ccc3nnc(Cc4ccc5nc[nH]c5c4)n3n2)cc1 [compound 45, 3-(3H-Benzoimidazol-5-ylmethyl)-6-phenyl-[1,2,4]triazolo[4,3-b]pyridazine]
100 to 1000 | 100 to 1000 | C/C=C/c1ccc2nnc(Cc3ccc4ncccc4c3)n2n1 [compound 46]
100 to 1000 | < 100 | CCNC(=O)c1cccc(-c2ccc3nnc(Cc4ccc5ncccc5c4)n3n2)c1 [compound 47]
 | 1000 to 10000 | Cc1cc(Cc2nnc3ccc(-c4cnn(C)c4)nn23)cc2cccnc12 [compound 91]
 | 1000 to 10000 | Cn1cc(-c2ccc3nnc(Cc4cc(F)c5ncccc5c4)n3n2)cn1 [compound 92]
 | 1000 to 10000 | Fc1cccc(-c2ccc3nnc(Cc4ccc5ncsc5c4)n3n2)c1 [compound 93]
 | 100 to 1000 | Fc1cc(F)cc(-c2ccc3nnc(Cc4ccc5ncsc5c4)n3n2)c1 [compound 97]
 | 100 to 1000 | C[C@H](c1ccc2ncsc2c1)c1nnc2ccc(-c3cccc(C#N)c3)nn12 [compound 104, I-3-[3-(1-Benzothiazol-6-yl-ethyl)-[1,2,4]triazolo[4,3-b]pyridazin-6-yl]-benzonitrile]
 | 100 to 1000 | Cc1ccc2nnc(Cc3ccc4ncccc4c3)n2n1 [compound 105]
 | 100 to 1000 | Cc1ccc2nnc(Cc3ccc4ncc(Br)cc4c3)n2n1 [compound 106]
 | 1000 to 10000 | Cc1ccc2nnc(Cc3ccc4ncc(C#N)cc4c3)n2n1 [compound 110, 6-(6-Methyl-[1,2,4]triazolo[4,3-b]pyridazin-3-ylmethyl)-quinoline-3-carbonitrile]
 | 100 to 1000 | CCc1ccc2nnc(Cc3c(F)cc4ncc(Br)cc4c3F)n2n1 [compound 115]
 | < 100 | CCc1cnc2ccc(Cc3nnc4ccc(C)nn34)cc2c1 [compound 116, 3-Ethyl-6-(6-methyl-[1,2,4]triazolo[4,3-b]pyridazin-3-ylmethyl)-quinoline]
 | < 100 | Cc1ccc2nnc(C(C)c3ccc4ncc(Br)cc4c3)n2n1 (stereo not drawn) [compound 119, 3-Bromo-6-[1-(6-methyl-[1,2,4]triazolo[4,3-b]pyridazin-3-yl)-ethyl]-quinoline]
 | 100 to 1000 | CCc1ccc2nnc(Cc3ccc4ncc(Br)cc4c3F)n2n1 [compound 121]
 | 100 to 1000 | Cc1ccc2nnc(Cc3ccc4ncc(-n5cccn5)cc4c3)n2n1 [compound 127]
 | 100 to 1000 | Cc1ccc2nnc(Cc3ccc4ncc(-c5c[nH]nc5C)cc4c3)n2n1 [compound 150]
 | 1000 to 10000 | Cc1ccc2nnc(Cn3ccc4ncc(-c5cnn(C)c5)cc43)n2n1 [compound 178]
 | < 100 | Cc1ccc2nnc(Cc3ccc4ncc(-c5cnn(C6CN(C)C6)c5)cc4c3)n2n1 [compound 183]
 | < 100 | CCc1ccc2nnc(Cc3ccc4ncc(-c5cnn(C6CNC6)c5)cc4c3F)n2n1 [compound 184]
 | < 100 | CCc1ccc2nnc(Cc3c(F)cc4ncc(-c5cnn(C6CNC6)c5)cc4c3F)n2n1 [compound 185]
 | < 100 | CCc1ccc2nnc(Cc3ccc4ncc(-c5cnn(C6CN(CC)C6)c5)cc4c3F)n2n1 [compound 186]
 | < 100 | CCc1ccc2nnc(Cc3c(F)cc4ncc(-c5cnn(C6CN(CC)C6)c5)cc4c3F)n2n1 [compound 187]
 | < 100 | CCN1CC(n2cc(-c3cnc4cc(F)c(Cc5nnc6ccc(C)nn56)c(F)c4c3)cn2)C1 [compound 188]
 | < 100 | CCc1ccc2nnc(Cc3ccc4ncc(-c5cnn(C6CNC6)c5)cc4c3)n2n1 [compound 189]
 | < 100 | CCN1CC(n2cc(-c3cnc4ccc(C(C)c5nnc6ccc(C)nn56)cc4c3)cn2)C1 (stereo not drawn) [compound 190]
 | < 100 | Cc1ccc2nnc(C(C)c3ccc4ncc(-c5cnn(C)c5)cc4c3)n2n1 (stereo not drawn) [compound 191]
